In patent publication US20090030005A1, “Combinations for the treatment of cancer” (AMGEN INC., priority 2007, published 2009):
pIC50: −log10 of the molar value. Like-named read-outs stand apart in the source and are kept apart here. Each block holds one molecule with its values, some of them ahead of it.

Assays:
Format in all cases: cell-based
MiaPaCa-2 cells = test: 14C-thymidine incorporation assay, IC20 determination (MTAP status not specified); settings: Homo sapiens, MIA PaCa-2; same thymidine incorporation assay as Example 2
Experimental: (§1) CDK4 inhibitor in MTAP^+/+ and MTAP^−/− MiaPaCa-2 cells. The IC50 of a CDK4 inhibitor was determined in the MTAP+/+ and MTAP−/− MiaPaCa-2 cells using a thymidine incorporation assay. MTAP^−/− and MTAP^+/+ MiaPaCa-2 cells from Example 1 were seeded at 2×10^4 cells/ml in 100 μl per well in Costar T plates (Amersham Biosciences). Twenty-four hours later a dose response of a CDK4 inhibitor PD-0332991 (1 nM; 3 nM, 10 nM, 30 nM, 100 nM, 300 nM, 1 μM, 3 μM, 10 μM and 30 μM concentrations) was added to triplicate wells. ^14C-Thymidine (0.1 μCi, Amersham) was added to each well for a final total volume of 200 μL. Plates were read on a beta counter for incorporation of the radioactive thymidine as a measure of cell viability at time 0, 24, 48, 72 and 96 hours. Data was calculated as the mean and standard deviation of triplicate samples divided by the mean and standard deviation of untreated control samples to yield percent of control.
Alanosine or MTX were then dosed at the IC20 concentrations together with a dose response of the CDK4 inhibitor with or without adenine or MTA.

MTAP-/- MiaPaCa-2 cells = test: 14C-thymidine incorporation assay (cell viability) in MTAP-/- MiaPaCa-2 cells; settings: for pIC50: Homo sapiens
Experimental: (§2) Generation of MTAP^+/+ and MTAP^−/− MiaPaCa-2 cells. MiaPaCa-2 pancreatic cells, which harbor a homozygous deletion in MTAP (MTAP^−/−) were obtained from ATCC. Cells were infected with either a control virus (pLPC) or a virus expressing MTAP (pLPC-MTAP). Infected cells were selected by puromycin resistance and maintained in 0.5 μg/ml puromycin. MTAP expression in MTAP^+/+ MiaPaCa-2 cells was confirmed by QPCR.
as §1
(§3) Combination of de novo purine biosynthesis inhibitor and CDK4 inhibitor in MTAP^−/− cells with adenine. MTAP^−/− MiaPaCa-2 cells from Example 1 were seeded at 2×10^4 cells/ml in 100 μl per well in Costar T plates (Amersham Biosciences). Twenty-four hours later a dose response of a CDK4 inhibitor PD-0332991 (1 nM; 3 nM, 10 nM, 30 nM, 100 nM, 300 nM, 1 μM, 3 μM, 10 μM and 30 μM concentrations) was added to triplicate wells with or without 1.7 μM (IC20) of alanosine. Some cells were also treated with 20 μM adenine (Sigma) as rescue substrate. ^14C-Thymidine (0.1 μCi, Amersham) was added to each well for a final total volume of 200 μL. Plates were read for incorporation of the radioactive thymidine as a measure of cell viability on a beta counter at time 0, 24, 48, 72 and 96 hours. Data was calculated as the mean and standard deviation of triplicate samples divided by the mean and standard deviation of untreated control samples to yield percent of control.
as §3, with “MTA.” for “adenine.”, “MTA” for “adenine”
(§4) Combination of MTX and CDK4 inhibitor in MTAP^−/− cells. MTAP^−/− MiaPaCa-2 cells from Example 1 were seeded at 2×10^4 cells/ml in 100 μl per well in Costar T plates (Amersham Biosciences). Twenty-four hours later a dose response of a CDK4 inhibitor PD-0332991 (1 nM; 3 nM, 10 nM, 30 nM, 100 nM, 300 nM, 1 μM, 3 μM, 10 μM and 30 μM concentrations) and thymidine (20 μM, Sigma) was added to triplicate wells with or without 20 nM (IC20) of MTX. ^14C-Thymidine (0.1 μCi, Amersham) was added to each well for a final total volume of 200 μL. Plates were read for incorporation of the radioactive thymidine as a measure of cell viability on a beta counter at time 0, 24, 48, 72 and 96 hours.

MTAP+/+ MiaPaCa-2 cells = test: 14C-thymidine incorporation assay (cell viability) in MTAP+/+ MiaPaCa-2 cells; settings: for pIC50: Homo sapiens
Experimental: as §2, §1
as §3, with “MTAP^+/+” for “MTAP^−/−”
Combination of de novo purine biosynthesis inhibitor and CDK4 inhibitor in MTAP^+/+ cells with MTA. MTAP^+/+ MiaPaCa-2 cells from Example 1 were seeded at 2×10^4 cells/ml in 100 μl per well in Costar T plates (Amersham Biosciences).
as §3, with “Twenty-four” for “Combination of de novo purine biosynthesis inhibitor and CDK4 inhibitor in MTAP^−/− cells with adenine. MTAP^−/− MiaPaCa-2 cells from Example 1 were seeded at 2×10^4 cells/ml in 100 μl per well in Costar T plates (Amersham Biosciences). Twenty-four”, “MTA” for “adenine”
as §4, with “MTAP^+/+” for “MTAP^−/−”

Compound: CN(Cc1cnc2nc(N)nc(N)c2n1)c1ccc(C(=O)N[C@@H](CCC(=O)O)C(=O)O)cc1 [MTX, Methotrexate]
- IC20 (MiaPaCa-2 cells): 2 nM

- pIC50 (MTAP-/- MiaPaCa-2 cells; MIA PaCa-2, Example 2, first experiment, CDK4 inhibitor alone, MTAP-/- cells, FIG. 1, read-out: IC50 of the CDK4 inhibitor): 5.81
- pIC50 (MTAP-/- MiaPaCa-2 cells; MIA PaCa-2, MTAP-/- cells, 1.7 μM alanosine and 20 μM MTA, read-out: IC50 of the CDK4 inhibitor together with the alanosine and with MTA): 6.19
- pIC50 (MTAP-/- MiaPaCa-2 cells; MIA PaCa-2, MTAP-/- cells, 1.7 μM alanosine and 20 μM adenine, read-out: IC50 of the CDK4 inhibitor together with the alanosine and with adenine): 5.61
- pIC50 (MTAP-/- MiaPaCa-2 cells; MIA PaCa-2, MTAP-/- cells, 20 μM MTA, read-out: IC50 of the CDK4 inhibitor together with the MTA): 5.77
- pIC50 (MTAP-/- MiaPaCa-2 cells; MIA PaCa-2, MTAP-/- cells, 20 μM adenine, read-out: IC50 of the CDK4 inhibitor together with the adenine): 6.02
- pIC50 (MTAP-/- MiaPaCa-2 cells; MIA PaCa-2, MTAP-/- cells, Examples 4 and 6, FIG. 3, 5, read-out: IC50 of the CDK4 inhibitor alone): 5.89
- pIC50 (MTAP-/- MiaPaCa-2 cells; MIA PaCa-2, MTAP-/- cells, with 1.7 μM (IC20) alanosine, read-out: IC50 of the CDK4 inhibitor together with the alanosine): 6.54
- pIC50 (MTAP-/- MiaPaCa-2 cells; MIA PaCa-2, MTAP-/- cells, with thymidine 20 μM and 20 nM (IC20) MTX, read-out: IC50 of the CDK4 inhibitor together with MTX): 6.10
- pIC50 (MTAP-/- MiaPaCa-2 cells; MIA PaCa-2, MTAP-/- cells, with thymidine 20 μM, Example 8, FIG. 7, read-out: IC50 of the CDK4 inhibitor alone): 5.89
- pIC50 (MTAP+/+ MiaPaCa-2 cells; MIA PaCa-2, Example 2, first experiment, CDK4 inhibitor alone, MTAP+/+ cells, FIG. 1, read-out: IC50 of the CDK4 inhibitor): 5.74
- pIC50 (MTAP+/+ MiaPaCa-2 cells; MIA PaCa-2, MTAP+/+ cells, 1.7 μM alanosine and 20 μM MTA, read-out: IC50 of the CDK4 inhibitor together with the alanosine and with MTA): 5.21
- pIC50 (MTAP+/+ MiaPaCa-2 cells; MIA PaCa-2, MTAP+/+ cells, 1.7 μM alanosine and 20 μM adenine, read-out: IC50 of the CDK4 inhibitor together with the alanosine and with adenine): 5.25
- pIC50 (MTAP+/+ MiaPaCa-2 cells; MIA PaCa-2, MTAP+/+ cells, 20 μM MTA, read-out: IC50 of the CDK4 inhibitor together with the MTA): 5.08
- pIC50 (MTAP+/+ MiaPaCa-2 cells; MIA PaCa-2, MTAP+/+ cells, 20 μM adenine, read-out: IC50 of the CDK4 inhibitor together with the adenine): 5.13
- pIC50 (MTAP+/+ MiaPaCa-2 cells; MIA PaCa-2, MTAP+/+ cells, Examples 3 and 5, FIG. 2, 4, read-out: IC50 of the CDK4 inhibitor alone): 5.36
- pIC50 (MTAP+/+ MiaPaCa-2 cells; MIA PaCa-2, MTAP+/+ cells, with 1.7 μM (IC20) alanosine, read-out: IC50 of the CDK4 inhibitor together with the alanosine): 6.00
- pIC50 (MTAP+/+ MiaPaCa-2 cells; MIA PaCa-2, MTAP+/+ cells, with thymidine 20 μM and 20 nM (IC20) MTX, read-out: IC50 of the CDK4 inhibitor together with MTX): 5.46
- pIC50 (MTAP+/+ MiaPaCa-2 cells; MIA PaCa-2, MTAP+/+ cells, with thymidine 20 μM, Example 7, FIG. 6, read-out: IC50 of the CDK4 inhibitor alone): 5.49
Compound: CC(=O)c1c(C)c2cnc(Nc3ccc(N4CCNCC4)cn3)nc2n(C2CCCC2)c1=O [PD-0332991]

- Rescue of the alanosine shift of the IC50 of the CDK4 inhibitor (MTAP-/- MiaPaCa-2 cells; MTAP-/- cells, 20 μM rescue substrate): rescued
- Rescue of the alanosine shift of the IC50 of the CDK4 inhibitor (MTAP+/+ MiaPaCa-2 cells; MTAP+/+ cells, 20 μM rescue substrate): rescued
Compound: Nc1ncnc2nc[nH]c12 [adenine]

Compound: N[C@@H](CN(O)N=O)C(=O)O [alanosine]
- IC20 (MiaPaCa-2 cells): 1700 nM
